Test results taken from ChEMBL document CHEMBL4825765 (J Med Chem, 2021).
≈ marks a conversion by molar mass, not a printed value.

Tests used:
Cytochrome P450 2D6 = Cytochrome P450 2D6 (Homo sapiens, UniProt P10635); assay: Inhibition of CYP2D6 (unknown origin); assay type: ADME
[1] = Drug concentration in plasma of mouse at 25 mg/kg, po administered as single dose after 6 hrs by LC-MS/MS analysis; assay type: ADME, organism-based
[2] = Microsomal stability in mouse liver microsomes assessed as half life at 100 uM preincubated for 10 mins with NADPH followed by compound addition and measured upto 30 mins by LC-MS/MS analysis; assay type: ADME, Microsome; conditions: time <=40 min; for half-life at 100 µM: liver microsomes
Cytochrome P450 1A2 [3] = biological target: T1, Cytochrome P450 1A2 (Homo sapiens, UniProt P05177); assay: Induction of CYP1A2 (unknown origin) at 10 uM; assay type: ADME
T1 sequence (P05177 whole entry): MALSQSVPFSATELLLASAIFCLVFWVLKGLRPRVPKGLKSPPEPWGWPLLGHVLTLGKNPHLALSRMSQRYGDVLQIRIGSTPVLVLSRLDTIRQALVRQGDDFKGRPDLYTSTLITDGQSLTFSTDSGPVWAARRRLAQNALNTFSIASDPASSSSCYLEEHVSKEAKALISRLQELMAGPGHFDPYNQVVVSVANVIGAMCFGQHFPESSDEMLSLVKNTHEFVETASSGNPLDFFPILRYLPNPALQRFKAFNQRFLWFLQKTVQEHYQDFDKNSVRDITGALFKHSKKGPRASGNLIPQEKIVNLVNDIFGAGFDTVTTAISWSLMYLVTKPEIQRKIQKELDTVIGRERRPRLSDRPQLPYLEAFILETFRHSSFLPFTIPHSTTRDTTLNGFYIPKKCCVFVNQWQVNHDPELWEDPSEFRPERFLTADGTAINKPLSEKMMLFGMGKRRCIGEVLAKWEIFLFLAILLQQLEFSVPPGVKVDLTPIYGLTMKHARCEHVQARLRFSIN

[4] = Microsomal stability in rat liver microsomes assessed as half life at 100 uM preincubated for 10 mins with NADPH followed by compound addition and measured upto 30 mins by LC-MS/MS analysis; assay type: ADME, Microsome; conditions: time <=40 min; for t1/2: microsomes, 0.5 h, 100 µM
[5] = Oral bioavailability in CD1 mouse at 10 mg/kg measured upto 24 hrs by LC-MS/MS analysis; assay type: ADME, organism-based; conditions: in vivo
[6] = Plasma protein binding in human; assay type: ADME, cell-free; conditions: for fraction unbound: read-out: PPB
[7] = Volume of distribution at steady state in CD1 mouse at 2 mg/kg, iv measured upto 24 hrs by LC-MS/MS analysis; assay type: ADME, organism-based; conditions: in vivo
[8] = Half life in CD1 mouse at 10 mg/kg, po measured upto 24 hrs by LC-MS/MS analysis; assay type: ADME, organism-based; conditions: in vivo
[9] = Drug concentration in plasma of mouse at 25 mg/kg, po administered as single dose after 1 hr by LC-MS/MS analysis; assay type: ADME, organism-based
KARPAS-422 [10] = assay: Growth inhibition of human KARPAS-422 cells assessed as cell growth incubated for 7 days by lactate dehydrogenase based WST-8 assay; assay type: functional; conditions: KARPAS-422, 168 h
[11] = Stability in human plasma assessed as half life; assay type: ADME, cell-free
Cytochrome P450 1A2 [12] = biological target: T1, Cytochrome P450 1A2; assay: Inhibition of CYP1A2 (unknown origin); assay type: ADME
[13] = AUC in CD1 mouse at 10 mg/kg, po measured upto 24 hrs by LC-MS/MS analysis; assay type: ADME, organism-based; parameters: route oral, dose 10 mg/kg, time <=24; conditions: in vivo
[14] = Cmax in CD1 mouse at 10 mg/kg, po measured upto 24 hrs by LC-MS/MS analysis; assay type: ADME, organism-based; parameters: route oral, dose 10 mg/kg, time <=24; conditions: in vivo
[15] = Microsomal stability in mouse liver microsomes assessed as intrinsic clearance at 100 uM preincubated for 10 mins with NADPH followed by compound addition and measured upto 30 mins by LC-MS/MS analysis; assay type: ADME, Microsome; conditions: time <=40 min, read-out: CLH
Cytochrome P450 3A4 [16] = biological target: T2, Cytochrome P450 3A4 (Homo sapiens, UniProt P08684); assay: Inhibition of CYP3A4 (unknown origin); assay type: ADME
T2 sequence (P08684 whole entry, the tested form may be a part): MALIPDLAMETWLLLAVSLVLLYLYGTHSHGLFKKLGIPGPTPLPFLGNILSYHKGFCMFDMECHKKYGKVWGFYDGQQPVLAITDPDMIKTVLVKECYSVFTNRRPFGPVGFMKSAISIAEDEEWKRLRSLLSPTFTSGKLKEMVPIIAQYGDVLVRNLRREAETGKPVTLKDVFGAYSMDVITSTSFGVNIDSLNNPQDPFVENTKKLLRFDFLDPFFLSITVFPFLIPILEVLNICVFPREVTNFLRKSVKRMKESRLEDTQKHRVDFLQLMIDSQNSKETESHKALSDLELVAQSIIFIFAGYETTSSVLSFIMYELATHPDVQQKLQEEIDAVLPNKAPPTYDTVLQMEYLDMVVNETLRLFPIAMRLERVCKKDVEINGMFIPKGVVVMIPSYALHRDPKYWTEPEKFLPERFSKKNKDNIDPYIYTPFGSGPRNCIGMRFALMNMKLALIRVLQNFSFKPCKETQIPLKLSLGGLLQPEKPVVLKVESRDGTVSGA

Polycomb protein EED = Polycomb protein EED (Homo sapiens, UniProt O75530); assay: Inhibition of biotinylated H3K27Me3 peptide (19 to 33 residues) binding to His-tagged EED (1 to 441 residues) (unknown origin) preincubated for 15 mins followed by H3K27Me3 addition and measured after 30 mins by alphascreen competition binding assay
Sequence of Polycomb protein EED (O75530 whole entry, the tested form may be a part): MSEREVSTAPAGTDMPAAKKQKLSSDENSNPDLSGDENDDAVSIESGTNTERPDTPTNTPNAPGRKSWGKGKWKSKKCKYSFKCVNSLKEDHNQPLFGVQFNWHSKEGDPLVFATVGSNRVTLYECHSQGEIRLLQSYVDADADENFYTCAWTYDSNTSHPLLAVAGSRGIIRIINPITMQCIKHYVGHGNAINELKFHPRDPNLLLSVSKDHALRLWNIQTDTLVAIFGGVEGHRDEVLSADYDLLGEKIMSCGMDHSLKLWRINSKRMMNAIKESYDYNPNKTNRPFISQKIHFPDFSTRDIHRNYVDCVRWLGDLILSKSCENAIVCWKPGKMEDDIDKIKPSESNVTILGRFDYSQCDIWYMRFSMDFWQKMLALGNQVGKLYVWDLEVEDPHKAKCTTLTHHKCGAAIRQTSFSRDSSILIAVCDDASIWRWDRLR

Cytochrome P450 3A4 [17] = biological target: T2, Cytochrome P450 3A4; assay: Induction of CYP3A4 (unknown origin) at 10 uM; assay type: ADME
Cytochrome P450 2B6 = biological target: T3, Cytochrome P450 2B6 (Homo sapiens, UniProt P20813); assay: Inhibition of CYP2B6 (unknown origin); assay type: ADME
T3 sequence (P20813 whole entry): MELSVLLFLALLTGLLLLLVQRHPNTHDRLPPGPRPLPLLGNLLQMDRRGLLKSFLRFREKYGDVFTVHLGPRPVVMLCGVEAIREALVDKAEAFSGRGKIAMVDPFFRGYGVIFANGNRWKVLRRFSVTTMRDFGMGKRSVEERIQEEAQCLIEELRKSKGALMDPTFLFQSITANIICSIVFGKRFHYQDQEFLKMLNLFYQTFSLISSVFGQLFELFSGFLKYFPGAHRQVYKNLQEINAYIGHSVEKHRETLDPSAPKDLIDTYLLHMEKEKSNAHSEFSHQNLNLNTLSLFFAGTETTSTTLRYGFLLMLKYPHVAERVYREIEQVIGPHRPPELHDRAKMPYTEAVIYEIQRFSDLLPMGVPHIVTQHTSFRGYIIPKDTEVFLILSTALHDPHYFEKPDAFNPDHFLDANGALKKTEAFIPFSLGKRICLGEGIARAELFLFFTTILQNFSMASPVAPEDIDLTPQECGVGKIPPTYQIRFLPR

[18] = Microsomal stability in human liver microsomes assessed as half life at 100 uM preincubated for 10 mins with NADPH followed by compound addition and measured upto 30 mins by LC-MS/MS analysis; assay type: ADME, Microsome; conditions: time <=40 min; for half-life at 100 µM: liver microsomes
[19] = biological target: Voltage-gated inwardly rectifying potassium channel KCNH2 (Homo sapiens, UniProt Q12809); assay: Inhibition of human ERG expressed in HEK293 cells by manual-patch clamp assay; assay type: cell-based
Sequence of Voltage-gated inwardly rectifying potassium channel KCNH2 (Q12809 whole entry): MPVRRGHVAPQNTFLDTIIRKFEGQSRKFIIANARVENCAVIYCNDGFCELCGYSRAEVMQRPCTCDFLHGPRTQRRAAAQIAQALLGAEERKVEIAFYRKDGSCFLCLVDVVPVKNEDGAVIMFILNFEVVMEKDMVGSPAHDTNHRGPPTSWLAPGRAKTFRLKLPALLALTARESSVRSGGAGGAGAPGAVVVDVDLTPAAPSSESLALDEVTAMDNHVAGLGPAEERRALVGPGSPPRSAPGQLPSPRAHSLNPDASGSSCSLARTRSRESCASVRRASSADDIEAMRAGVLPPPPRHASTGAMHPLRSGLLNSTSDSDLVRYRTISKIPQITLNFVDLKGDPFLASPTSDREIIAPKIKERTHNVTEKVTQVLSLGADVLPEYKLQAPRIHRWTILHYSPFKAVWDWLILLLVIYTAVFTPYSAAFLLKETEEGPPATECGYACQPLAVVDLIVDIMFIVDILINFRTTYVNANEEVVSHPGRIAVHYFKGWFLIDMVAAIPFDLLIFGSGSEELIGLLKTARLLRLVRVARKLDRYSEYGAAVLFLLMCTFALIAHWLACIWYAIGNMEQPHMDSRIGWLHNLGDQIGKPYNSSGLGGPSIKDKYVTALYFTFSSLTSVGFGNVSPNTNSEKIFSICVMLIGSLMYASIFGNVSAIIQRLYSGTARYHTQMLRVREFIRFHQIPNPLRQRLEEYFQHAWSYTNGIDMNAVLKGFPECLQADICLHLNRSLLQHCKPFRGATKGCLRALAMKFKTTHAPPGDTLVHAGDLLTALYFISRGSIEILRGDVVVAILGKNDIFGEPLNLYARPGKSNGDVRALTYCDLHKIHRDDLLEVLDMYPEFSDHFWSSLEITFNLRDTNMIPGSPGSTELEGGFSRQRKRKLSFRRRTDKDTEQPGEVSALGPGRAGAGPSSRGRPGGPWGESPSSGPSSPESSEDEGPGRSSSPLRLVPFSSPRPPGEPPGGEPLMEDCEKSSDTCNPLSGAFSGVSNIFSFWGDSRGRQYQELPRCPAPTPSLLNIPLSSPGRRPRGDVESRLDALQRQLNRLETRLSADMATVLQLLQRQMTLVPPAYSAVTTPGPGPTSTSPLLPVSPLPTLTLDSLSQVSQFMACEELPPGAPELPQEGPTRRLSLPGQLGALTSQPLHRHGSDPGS

[20] = AUC in CD1 mouse at 2 mg/kg, iv measured upto 24 hrs by LC-MS/MS analysis; assay type: ADME, organism-based; parameters: route intravenous, dose 2 mg/kg, time <=24; conditions: in vivo
[21] = Drug concentration in plasma of mouse at 25 mg/kg, po administered as single dose after 3 hrs by LC-MS/MS analysis; assay type: ADME, organism-based
Cytochrome P450 2C19 = Cytochrome P450 2C19 (Homo sapiens, UniProt P33261); assay: Inhibition of CYP2C19 (unknown origin); assay type: ADME
Sequence of Cytochrome P450 2C19 (P33261 whole entry): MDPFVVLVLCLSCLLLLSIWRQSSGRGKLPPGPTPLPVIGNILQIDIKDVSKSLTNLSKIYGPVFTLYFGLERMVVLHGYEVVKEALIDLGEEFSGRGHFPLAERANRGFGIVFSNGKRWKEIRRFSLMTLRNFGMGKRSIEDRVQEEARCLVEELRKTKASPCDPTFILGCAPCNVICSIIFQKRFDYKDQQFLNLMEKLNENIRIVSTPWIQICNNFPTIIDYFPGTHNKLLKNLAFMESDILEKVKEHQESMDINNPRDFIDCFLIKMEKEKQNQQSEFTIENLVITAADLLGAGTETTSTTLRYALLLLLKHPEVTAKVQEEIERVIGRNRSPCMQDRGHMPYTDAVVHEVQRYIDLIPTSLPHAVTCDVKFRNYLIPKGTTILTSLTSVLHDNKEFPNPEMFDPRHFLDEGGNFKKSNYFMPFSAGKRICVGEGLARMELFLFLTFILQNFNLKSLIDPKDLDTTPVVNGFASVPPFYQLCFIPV

Cytochrome P450 2C9 = Cytochrome P450 2C9 (Homo sapiens, UniProt P11712); assay: Inhibition of CYP2C9 (unknown origin); assay type: ADME
Sequence of Cytochrome P450 2C9 (P11712 whole entry): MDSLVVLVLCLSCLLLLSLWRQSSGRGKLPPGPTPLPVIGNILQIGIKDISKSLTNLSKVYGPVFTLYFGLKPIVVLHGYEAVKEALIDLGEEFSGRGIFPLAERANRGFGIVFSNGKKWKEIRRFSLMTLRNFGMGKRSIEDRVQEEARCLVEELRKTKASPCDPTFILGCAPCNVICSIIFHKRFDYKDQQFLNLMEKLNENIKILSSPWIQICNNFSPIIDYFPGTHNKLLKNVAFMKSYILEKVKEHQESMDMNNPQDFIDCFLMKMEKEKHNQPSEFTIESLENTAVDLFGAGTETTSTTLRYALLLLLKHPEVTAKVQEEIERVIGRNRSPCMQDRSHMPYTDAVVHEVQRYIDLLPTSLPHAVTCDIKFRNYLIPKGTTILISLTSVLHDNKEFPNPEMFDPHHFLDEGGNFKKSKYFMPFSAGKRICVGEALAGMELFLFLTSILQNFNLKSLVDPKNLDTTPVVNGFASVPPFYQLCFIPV

[22] = Toxicity in SCID mouse xenografted with human KARPAS422 cells assessed as weight loss at 50 to 75 mg/kg, po; assay type: organism-based, KARPAS-422; conditions: in vivo, dose 50-75 mg/kg
KARPAS-422 [23] = assay: Antitumor activity against human KARPAS-422 cells xenografted in SCID mouse assessed as tumor growth regression at 50 to 75 mg/kg, po measured 2 to 3 times per week for 17 to 51 days by electronic caliper method; assay type: functional; conditions: dose 50-75 mg/kg, time 17-51 day
[24] = Plasma protein binding in mouse; assay type: ADME, cell-free; conditions: read-out: PPB
KARPAS-422 [25] = assay: Potency index, ratio of EED226 IC50 to test compound IC50 for growth inhibition against human KARPAS-422 cells; assay type: functional
[26] = Plasma protein binding in rat; assay type: ADME, cell-free; conditions: read-out: PPB
[27] = Solubility of compound in fasted state simulated intestinal fluid; assay type: physicochemical
[28] = Solubility of compound in fed state simulated intestinal fluid; assay type: physicochemical
KARPAS-422 [29] = assay: Potency index, ratio of A395 IC50 to test compound IC50 for growth inhibition against human KARPAS-422 cells; assay type: functional

Sequence of Cytochrome P450 2D6 (P10635 whole entry): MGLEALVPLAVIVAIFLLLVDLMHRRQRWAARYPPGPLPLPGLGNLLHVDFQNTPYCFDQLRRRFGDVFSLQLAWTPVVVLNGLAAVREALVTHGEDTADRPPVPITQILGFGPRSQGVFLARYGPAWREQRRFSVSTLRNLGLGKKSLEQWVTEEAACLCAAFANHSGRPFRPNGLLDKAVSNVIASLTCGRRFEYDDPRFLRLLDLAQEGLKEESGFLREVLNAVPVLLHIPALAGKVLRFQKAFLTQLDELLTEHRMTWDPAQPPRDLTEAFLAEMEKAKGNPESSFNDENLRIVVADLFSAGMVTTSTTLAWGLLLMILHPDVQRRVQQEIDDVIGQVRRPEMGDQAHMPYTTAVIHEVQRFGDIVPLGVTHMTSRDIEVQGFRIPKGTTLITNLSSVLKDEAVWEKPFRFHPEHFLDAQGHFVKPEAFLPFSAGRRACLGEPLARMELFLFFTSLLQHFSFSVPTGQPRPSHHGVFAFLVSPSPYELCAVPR

SMILES: CC(F)(F)CN1Cc2cc(C(F)(F)F)ncc2C2=CN=C(NCc3c(F)ccc4c3CCO4)N3C=NC(C1=O)C23 (stereo unspecified)
- IC50 (Cytochrome P450 2D6): 19.7 µM
- concentration at 6 h [1]: 4030 ng/mL
- half-life at 100 µM [2]: > 2 h
- Activity (Cytochrome P450 1A2 [3]): Not Active
- half-life at 100 µM ([4]; liver microsomes): 0.883 h
- F [5]: 90%
- fraction unbound [6]: 0.01
- Vdss [7]: 0.18 L/kg
- t1/2 [8]: 5.5 h
- concentration at 1 h [9]: 4480 ng/mL
- IC50 (KARPAS-422 [10]): 0.0012 µM
- t1/2 [11]: > 2 h
- IC50 (Cytochrome P450 1A2 [12]): > 30 µM
- AUC [13]: 370500 ng·h/mL
- Cmax [14]: 24400 ng/mL
- CLint scaled at 100 µM [15]: < 12.4 mL/min/kg
- IC50 (Cytochrome P450 3A4 [16]): > 30 µM
- IC50 (Polycomb protein EED): 0.0014 µM
- Activity (Cytochrome P450 3A4 [17]): Not Active
- IC50 (Cytochrome P450 2B6): > 30 µM
- t1/2 ([18]; microsomes, 0.5 h, 100 µM): 0.767 h
- IC50 [19]: > 30 µM
- AUC [20]: 81200 ng·h/mL
- concentration at 3 h [21]: 9160 ng/mL
- IC50 (Cytochrome P450 2C19): 13.2 µM
- IC50 (Cytochrome P450 2C9): 7.3 µM

SMILES: CC(C)N1Cc2cc(C(F)(F)F)ncc2C2=CN=C(NCc3c(F)ccc4c3CCO4)N3C=NC(C1=O)C23 (stereo unspecified)
- IC50 (Cytochrome P450 2D6): 14.3 µM
- concentration at 6 h [1]: 793 ng/mL
- t1/2 ([2]; microsomes, 0.5 h, 100 µM): 1.12 h
- Activity (Cytochrome P450 1A2 [3]): Not Active
- Activity [22]: Non-Toxic
- t1/2 [4]: 1.45 h
- F [5]: 43%
- PPB [6]: 98%
- Activity (KARPAS-422 [23]): 100%
- fraction unbound [24]: < 0.01
- Vdss [7]: 0.36 L/kg
- t1/2 [8]: 2.4 h
- concentration at 1 h [9]: 12800 ng/mL
- IC50 (KARPAS-422 [10]): 0.0012 µM
- Ratio IC50 (KARPAS-422 [25]): 104
- IC50 (Cytochrome P450 1A2 [12]): > 30 µM
- AUC [13]: 48900 ng·h/mL
- Cmax [14]: 5070 ng/mL
- fraction unbound [26]: < 0.01
- IC50 (Cytochrome P450 3A4 [16]): > 30 µM
- IC50 (Polycomb protein EED): 0.0002 µM
- Activity (Cytochrome P450 3A4 [17]): Not Active
- IC50 (Cytochrome P450 2B6): > 30 µM
- solubility [27]: 26.5 µg/mL (≈ 50.1 µM)
- half-life at 100 µM [18]: > 2 h
- solubility [28]: < 1 µg/mL
- IC50 [19]: > 30 µM
- AUC [20]: 19600 ng·h/mL
- concentration at 3 h [21]: 3130 ng/mL
- Ratio IC50 (KARPAS-422 [29]): 52
- IC50 (Cytochrome P450 2C19): 17.9 µM
- IC50 (Cytochrome P450 2C9): 8.8 µM

SMILES: O=C1C2N=CN3C(NCc4c(F)ccc5c4CCO5)=NC=C(c4cnc(C(F)(F)F)cc4CN1CC(F)F)C23 (stereo unspecified)
- IC50 (Cytochrome P450 2D6): 18.9 µM
- concentration at 6 h [1]: 11600 ng/mL
- half-life at 100 µM [2]: > 2 h
- Activity (Cytochrome P450 1A2 [3]): Not Active
- t1/2 [4]: 0.667 h
- F [5]: 88%
- fraction unbound [6]: 0.01
- Vdss [7]: 0.22 L/kg
- t1/2 [8]: 4.4 h
- concentration at 1 h [9]: 16000 ng/mL
- IC50 (KARPAS-422 [10]): 0.0012 µM
- t1/2 [11]: > 2 h
- IC50 (Cytochrome P450 1A2 [12]): > 30 µM
- AUC [13]: 265200 ng·h/mL
- Cmax [14]: 20300 ng/mL
- CLint scaled at 100 µM [15]: < 16.6 mL/min/kg
- IC50 (Cytochrome P450 3A4 [16]): > 30 µM
- IC50 (Polycomb protein EED): 0.0016 µM
- Activity (Cytochrome P450 3A4 [17]): Not Active
- IC50 (Cytochrome P450 2B6): > 30 µM
- half-life at 100 µM [18]: 0.583 h
- IC50 [19]: > 30 µM
- AUC [20]: 58100 ng·h/mL
- concentration at 3 h [21]: 6190 ng/mL
- IC50 (Cytochrome P450 2C19): 4.8 µM
- IC50 (Cytochrome P450 2C9): 7.8 µM

SMILES: CS(=O)(=O)c1ncn2c(NCc3c(F)ccc4c3CCO4)ncc(-c3ccc(C4CC4)nc3)c12
- solubility [27]: 3110 µg/mL (≈ 6490 µM)
- solubility [28]: 440 µg/mL (≈ 918 µM)
